# Measurements published in patent US20020045780A1, “Biologically active spermidine analogues, pharmaceutical compositions and methods of treatment” (priority 1997, published 2002).
# Entries after “also recorded” stand apart in the source; their conditions may differ. Where a name gives a salt, the structure may show the parent alone. Read-outs that look alike come from different tables or passages of the source.
# What was measured:
# [1] = tested on: polyamine transport apparatus; assay: Competitive uptake determination: inhibition of [3H]spermidine transport into L1210 cells; assay type: cell-based, murine; settings: analogue inhibition of spermidine transport
# Protocol: The ability of the norspermidines, spermidines, homospermidines, 4,5- and 5,5-triamines to compete with radiolabeled SPD for uptake was evaluated (Table 1). The general trend is that the terminally alkylated triamines have higher Ki values than the unalkylated triamines and are thus less easily taken up by the cell. […] This is not completely true with the norspermidines and the 5,5 triamines. The relationship holds with methyl and ethyl but not for the propyl of the latter two systems. Finally, the number of methylenes separating the amines plays a role in determining polyamine uptake properties. In general the effectiveness with which the analogues compete for uptake is spermidines≈homospermidines>4,5 triamines>5,5 triamines>norspermidine.
# The polyamine derivatives were studied for their ability to compete with [^3H]-SPD for uptake into L1210 cells [Bergeron et al, J. Med. Chem., Vol. 37, supra]. Lineweaver-Burk plots indicated a simple competitive inhibition with respect to SPD.
# [2] = tested on: L1210 cells; assay: L1210 growth inhibition, IC50 determination; assay type: cell-based, murine; settings: Mus musculus
# Protocol: Murine L1210 leukemia cells (ATCC CCL 219) were maintained in logarithmic growth in RPMI-1640 medium containing 10% fetal calf serum or a semi-synthetic equivalent, NuSerum, 2% HEPES-MOPS buffer and 1 mM aminoguanidine.
# [3] = tested on: ornithine decarboxylase (ODC); assay: ODC activity in treated L1210 cells; assay type: cell-based, murine; settings: L1210, 1 μM at 4 hours
# Protocol: (§1) On the basis of these studies, it was elected to evaluate the impact of the triamines on ODC and AdoMetDC at 4 and 6 hours, respectively.
# (§2) ODC and AdoMetDC activities were determined as ^14CO2 released from [^14C]-carboxyl-labeled L-ornithine [Seely et al, “Ornithine Decarboxylase (Mouse Kidney),” Methods Enzymol., Vol. 94, pages 158-161 (1983)] or S-adenosyl-L-methionine [Pegg et al, “S-Adenosylmethionine Decarboxylase (Rat Liver),” Methods Enzymol., Vol. 94, pages 234-239 (1983)], respectively. Included in each assay were untreated L1210 cells as controls, as well as cells treated with DEHSPM, a drug having a known reproducible effect on each enzyme, as positive controls.
# [4] = tested on: S-adenosylmethionine decarboxylase (AdoMetDC); assay: AdoMetDC activity in treated L1210 cells; assay type: cell-based, murine; settings: L1210, 1 μM at 6 hours
# Protocol: as §1, §2
# [5] = tested on: L1210 cells; assay: Polyamine pool analysis in L1210 cells; assay type: cell-based, murine; settings: for activity at 0.9 µM / activity at 4.5 µM / activity at 100 µM / activity at 500 µM: Mus musculus; for activity at 0.9 µM / activity at 4.5 µM / Put / Spd / activity at 100 µM / activity at 500 µM: % of untreated control; for Analogue: intracellular amount; for Put / Spd: Trihydrochloride
# Protocol: The following guidelines were adopted for studying the impact of the analogues on polyamine pools (Table 2). The measurements were made after a 48-hour exposure to the analogue, and two different concentrations of analogue were evaluated in each case.
# (§3) The cells were washed twice with cold RPMI-1640, and the pellet was treated with 0.6 N HClO4 (1 ml/10^7 cells). Polyamine contents of the perchloric acid extracts were quantitated by HPLC of the DANSYL derivatives [Bergeron et al, J. Med. Chem., Vol. 37, supra].
# [6] = tested on: spermidine/spermine acetyltransferase (SSAT); assay: SSAT activity in treated L1210 cells; assay type: cell-based, murine; settings: L1210, 10 μM at 48 hours (triamine analogues)
# Description: Spermidine/spermine N^1-acetyltransferase activity was based on quantitation of [^14C]-N^1-acetylspermidine formed by acetylation of SPD with [^14C] acetyl coenzyme A according to the method of Libby et al [Biochem. Pharmacol., Vol. 38, supra]. Cells treated with DENSPM were positive controls.
# [7] = tested on: L1210 cells; settings: intracellular amount, 48 hours, cited from earlier work
# [8] = tested on: L1210 cells; assay: Metabolic transformation of polyamine analogues by L1210 cells; assay type: in vitro ADME, murine; settings: 48 hours, 100 μM analogue
# Protocol: as §3
# [9] = L1210, 48 h, L1210, 48 hour exposure, read-out: IC50 48 hour
# [10] = L1210, 96 h, L1210, 96 hour exposure, read-out: IC50 96 hour
# [11] = 500 μM, 48 hours, listed as (5,5)
# [12] = L1210, 48 h, 100 μM, read-out: Put
# [13] = L1210, 48 h, 100 μM, read-out: Spd
# [14] = L1210, 48 h, 100 μM, read-out: Spm
# [15] = L1210, 48 h, 500 μM, read-out: Put
# [16] = L1210, 48 h, 500 μM, read-out: Spd
# [17] = L1210, 48 h, 500 μM, read-out: Spm
# [18] = 500 μM, 48 hours, listed as (4,5)
Compound,Ki [1] [µM],"IC50 [2, 9] [µM]","IC50 [2, 10] [µM]","ODC activity, percent of untreated control [3]","AdoMetDC activity, percent of untreated control [4]","SSAT activity, percent of untreated control [6]","activity at 100 µM [5, 12] [%]","activity at 100 µM [5, 13] [%]","activity at 100 µM [5, 14] [%]","activity at 500 µM [5, 15] [%]","activity at 500 µM [5, 16] [%]","activity at 500 µM [5, 17] [%]","Analogue ([5]; 100 μM, 48 hours) [nmol/10^6 cells]","Analogue ([5]; 500 μM, 48 hours) [nmol/10^6 cells]",also measured
"NCCCNCCCN [NSPD, N—(3-aminopropyl)-1,3-propanediamine, reference compound]",7.2,0.9,0.5,11% of untreated control,62% of untreated control,150% of untreated control,,,,,,,,,"activity at 0.9 µM ([5]; L1210, 0.9 μM, 48 hours, read-out: Put): 38%; activity at 0.9 µM ([5]; L1210, 0.9 μM, 48 hours, read-out: Spd): 44%; activity at 0.9 µM ([5]; L1210, 0.9 μM, 48 hours, read-out: Spm): 113%; activity at 4.5 µM ([5]; L1210, 4.5 μM, 48 hours, read-out: Put): 0%; activity at 4.5 µM ([5]; L1210, 4.5 μM, 48 hours, read-out: Spd): 12%; activity at 4.5 µM ([5]; L1210, 4.5 μM, 48 hours, read-out: Spm): 83%; Analogue ([5]; 0.9 μM, 48 hours): 1.09 nmol/10^6 cells; Analogue ([5]; 4.5 μM, 48 hours): 2.14 nmol/10^6 cells"
CCNCCCNCCCCNCCCN [MESPM],,,,,,,,,,,,,,,"Analogue, corresponding tetraamine (in parentheses) ([7]; 100 μM): (1.24) nmol/10^6 cells; Analogue, corresponding tetraamine (in parentheses) ([7]; 500 μM): (1.23) nmol/10^6 cells"
"NCCCCCNCCCCCN [5,5-Triamine, 1,7,13-Triazatridecane Trihydrochloride]",13.8,~100,0.3 to 0.5,16% of untreated control,88% of untreated control,90% of untreated control,0,0,33,0,0,20,2.58,2.50,"Put [5, 11]: below detectable level; Spd [5, 11]: below detectable level"
"CCNCCCNCCCN [MENSPD, monoethylnorspermidine]",34,> 100,> 100,42% of untreated control,58% of untreated control,390% of untreated control,,,,,,,,,"Parent drug as % of total drug in the cell [8]: 78.2%; Parent drug in L1210 cells [8]: 3051 pmols/10^6; Elaboration to tetraamine (result in words) ([8]; listed as ME-[3,3]): no evidence of a tetraamine elaboration metabolite; also recorded: no elaboration of N-Monoalkyl [3,3]"
"NCCCCNCCCCN [HSPD, Homospermidine Trihydrochloride]",3.4,> 100,1.7 to 4,11% of untreated control,54% of untreated control,430% of untreated control,,,,,,,3.58,4.44,"activity at 100 µM ([5]; L1210, 100 μM, 48 hours, read-out: Put): 0%; activity at 100 µM ([5]; L1210, 100 μM, 48 hours, read-out: Spd): 4%; activity at 100 µM ([5]; L1210, 100 μM, 48 hours, read-out: Spm): 32%; activity at 500 µM ([5]; L1210, 500 μM, 48 hours, read-out: Put): 0%; activity at 500 µM ([5]; L1210, 500 μM, 48 hours, read-out: Spd): 2%; activity at 500 µM ([5]; L1210, 500 μM, 48 hours, read-out: Spm): 21%"
"NCCCCCNCCCCN [4,5-Triamine, 1,6,12-Triazadodecane Trihydrochloride]",1.4,> 100,0.15 to 0.2,19% of untreated control,57% of untreated control,410% of untreated control,0,1,53,0,0,35,3.02,3.20,"Put [5, 18]: below detectable level; Spd [5, 18]: below detectable level"
"CCCNCCCCNCCCNCCC [DPSPD, N^1,N^8-Dipropylspermidine Trihydrochloride]",25.6,> 100,30 to 35,75% of untreated control,,1030% of untreated control,6,35,135,0,~10,99,3.26,3.69,Parent drug as % of total drug in the cell [8]: 90.1%; Parent drug in L1210 cells [8]: 3260 pmols/10^6
"CCCNCCCCNCCCCN [MPHSPD, N^1-Propylhomospermidine Trihydrochloride]",5,100,0.5 to 0.7,20% of untreated control,59% of untreated control,570% of untreated control,0,2,82,0,0,66,5.16,5.86,
